We go through five compounds from US20020115723A1, “Cysteine derivatives” (AJINOMOTO CO., INC., priority 1998, published 2002).

Several values for one entry are separate records, joined by “and”; a condition that tells them apart may be missing. Equal values may be shown once.

The subject of series [1] is Hairless mice (SKH-1). The series can be described thus: Test on inhibiting function of wrinkles formation induced by ultraviolet rays (No. 2), Components (A) and (B) in combination. In kind it is in vivo, mouse. Also on record: scale not given here. The protocol: (§1) Hairless mice (SKH-1, female, 5-6 weeks old) were exposed to ultraviolet rays (UVB) three times/week (Monday, Wednesday and Friday) for 5 weeks, each at 50 to 100 mJ/cm^2 by using the above-described “Dermaray M-DMR-80” (ex Toshiba Medical Supply Co., Ltd.). The test compound (N,N′-diacetyl-L-cystine dimethyl ester) was dissolved in a mixed solvent of propylene glycol, ethanol and water, and was applied to the back portion of each of the mice in an amount of 100 μl, 30 to 60 minutes before exposure to ultraviolet rays, just after the completion of the exposure, and on the days free from exposure to ultraviolet rays (Sunday, Tuesday, Thursday and Saturday). From two weeks after the exposure had started, the wrinkles formed on the back portion of each mouse were evaluated once a week based on the below-described standards, and they were indicated as scores. In addition, the function of the inventive compound for inhibiting wrinkle formation induced by ultraviolet rays was judged based on the below-described judging standards.
Test on Inhibiting Function of Wrinkles Formation Induced by Ultraviolet Rays (No. 2)
Function of suppressing ultraviolet ray-induced wrinkles formation by the synergistic effects when Components (A) and (B) were used in combination, was judged in a similar manner to Test Example 2. Fifteen to twenty mice were divided into 4 groups, that is, a 1st group to which a mixed solvent of propylene glycol, ethanol and water was to be applied, a 2nd group to which a solution of only Component (A) dissolved in the above-described solvent was to be applied, a 3rd group to which a solution of only Component (B) dissolved in the above-described solvent was to be applied, and a 4th group to which a solution of both Components (A) and (B) dissolved in the above-described solvent was to be applied. An average score of each group was determined.

The test system of series [2] is AP-1. Briefly: Test on the function of inhibiting the AP-1 activation induced by ultraviolet rays (gel shift assay). To be noted: single compound. In kind it is cell-based, human. The protocol:
Test on the Function of Inhibiting the AP-1 Activation Induced by Ultraviolet Rays.
(§2) In a similar manner to Test Example 1, a nucleoprotein was obtained. Then, the activated AP-1 was detected by the gel shift assay. The radioactive value of the AP-1 band was measured as in Test Example 1, whereby the amount of the AP-1 was determined. The AP-1 activation inhibiting ratio of the test compounds was calculated by the below-described equation (2). The results of the test compounds according to the present invention are shown below in Table 4a, while those of the comparative compounds are shown below in Table 4b.
AP-1 activation inhibiting ratio (%)={1−(B1-B3)/(B2-B3)}×100 (2)
B1: radioactive value of the AP-1 band upon addition of a test compound.
B2: radioactive value of the AP-1 band when a test compound is not added.
B3: radioactive value of the AP-1 band when a test compound is not added and is not exposed to ultraviolet rays.
(In general: Mobility shift assays separate free from complexed probe on a gel.)

Series [3] concerns human epidermal cells. The series can be described thus: Toxicity to the cultured human epidermal cells seen in the NF-κB / AP-1 activation tests. It counts as cell-based. The protocol:
Each of the test compounds was added to a culture plate at a concentration within an extent not causing a damage to the human epidermal cells which had reached the confluent stage in the culture plate. After 18 hours had elapsed, the culture medium was substituted by a phenol red-free medium. The cells were exposed to ultraviolet rays (UVB: 50 mJ/cm^2) from an ultraviolet irradiator “Dermaray M-DMR-80” (ex Toshiba Medical Supply Co., Ltd.). After 4 to 5 hours had elapsed, the cells were collected, and the nucleoprotein was extracted therefrom in a manner known per se in the art. From the resulting nucleoprotein, the activated NF-κB was detected in accordance with the gel shift assay. The amount of the NF-κB was determined by measuring the radioactive value of the NF-κB band with the use of a bioimaging analyzer “BAS 2000” (ex Fuji Film Co., Ltd.).
as §2

The subject of series [4] is NF-κB. Briefly: Test on the function of inhibiting the activation of NF-κB induced by ultraviolet rays (gel shift assay). It counts as cell-based, human. Particulars: human epidermal cells, UVB 50 mJ/cm^2. The protocol: Test on the Function of Inhibiting the Activation of NF-κB Induced by Ultraviolet Rays.
After 18 hours had elapsed, the culture medium was substituted by a phenol red-free medium. The cells were exposed to ultraviolet rays (UVB: 50 mJ/cm^2) from an ultraviolet irradiator “Dermaray M-DMR-80” (ex Toshiba Medical Supply Co., Ltd.). After 4 to 5 hours had elapsed, the cells were collected, and the nucleoprotein was extracted therefrom in a manner known per se in the art. From the resulting nucleoprotein, the activated NF-κB was detected in accordance with the gel shift assay. The amount of the NF-κB was determined by measuring the radioactive value of the NF-κB band with the use of a bioimaging analyzer “BAS 2000” (ex Fuji Film Co., Ltd.).
The inhibition ratio of the activation of the NF-κB of the test compounds was calculated from the below-described formula (1).
Inhibition ratio of NF-κB activation (%)={1−(A1-A3)/(A2-A3)}×100 (1)
A1: radioactive value of the NF-κB upon addition of a test compound
A2: radioactive value of NF-κB when a test compound is not added
A3: radioactive value of NF-κB when a test compound is not added and is not exposed to ultraviolet rays.

The subject of series [5] is Hairless mice (SKH-1). Briefly: Test on suppressing function of wrinkles formation induced by ultraviolet rays (No. 1). In kind it is in vivo, mouse. To be noted: for Wrinkle score, individual mouse / Wrinkle score, Average: 10% applied; for Wrinkle score, individual mouse: score 0 to 5. The protocol:
Test on Suppressing Function of Wrinkles Formation Induced by Ultraviolet Rays (No. 1)
as §1

For `CCCCC(CC)COC(=O)C=Cc1ccc(OC)cc1` (centres unmarked) [2-ethylhexyl p-methoxycinnamate], the “Wrinkle score (group average)” value in series [1] (3% alone, 2nd week) came out at 0.0; in series [1] (3% alone, 3rd week), 0.5; in series [1] (3% alone, 4th week), 1.5; in series [1] (3% alone, 5th week) it was 0.5. The results for the “AP-1 activation Inhibiting ratio (%)” value in series [2] (10 μM) and in series [2] (100 μM) were −20% and 11%, respectively.
Turning to `O=C1O[C@H]([C@@H](O)CO)C(O)=C1O` [L (+) ascorbic acid], the “Wrinkle score (group average)” value in series [1] (5% alone, 2nd week) was determined as 1.0; in series [1] (5% alone, 3rd week) it was 2.0; in series [1] (5% alone, 4th week), 4.0; in series [1] (5% alone, 5th week), 4.0. Besides, the “AP-1 activation Inhibiting ratio (%)” value in series [2] (0.1 mM) is 1%; in series [2] (1 mM) it was 0%.
For the compound `CCOC(=O)[C@@H](N)CS` [L-cysteine ethyl ester], in series [3] (addition concentration 5 mM, NF-κB test), the “Toxicity expressed (inhibition ratio)” value was “Toxity”. Also, the entries for the “Inhibition ratio (%) of NF-κB activation” value in series [4] (addition concentration 0.5 mM) and in series [4] (addition concentration 1 mM) were 60% and 61%, respectively.
As to `COC(=O)[C@H](CSSC[C@H](NC(C)=O)C(=O)OC)NC(C)=O` [N,N′-diacetyl-L-cystine dimethyl ester], the “Inhibition ratio (%) of NF-κB activation” value in series [4] (addition concentration 0.01 mM) turned out to be 47%; in series [4] (addition concentration 0.1 mM) it was 86%. For the same compound, the “Wrinkle score, individual mouse” value in series [5] (2nd week of UVB exposure) was 2 and 1 (4×) and 0 and 3; in series [5] (3rd week of UVB exposure) it was 2 (5×) and 3 and 1; in series [5] (4th week of UVB exposure) it was 3 (3×) and 5 (2×) and 2 and 4; in series [5] (5th week of UVB exposure), 2 (3×) and 3 (3×) and 4. Also, the “Wrinkle score, Average” value in series [5] (2nd week, solvent group 2.6) is 1.3; in series [5] (3rd week, solvent group 3.6), 2.0; in series [5] (4th week, solvent group 4.0), 3.6; in series [5] (5th week, solvent group 4.4) it was 2.7. The “Effect on wrinkle formation induced by ultraviolet rays (in words)” value in series [5] (summary of Table 3) is “exhibited effects for retarding and alleviating the wrinkle formation induced by ultraviolet rays”. Further, the “Wrinkle score (group average)” value in series [1] (10% alone, 4th week) is 5.0 and 3.0 and 2.5; in series [1] (10% alone, 5th week), 4.0 and 2.0. In series [2] (10 μM), the “AP-1 activation Inhibiting ratio (%)” value is recorded as 4%.
Turning to `CC1=C(/C=C/C(C)=C/C=C/C(C)=C/C=C/C=C(C)/C=C/C=C(C)/C=C/C2=C(C)C(=O)[C@@H](O)CC2(C)C)C(C)(C)C[C@H](O)C1=O` [astaxantin], in series [3] (100 μM, AP-1 test), the “Toxicity expressed (in inhibiting ratio column)” value is given as “Toxicity”. Besides, the “AP-1 activation Inhibiting ratio (%)” value in series [2] (1 μM) is given as −54%; in series [2] (10 μM), 0%.
